From US20030224942A1, “Alkylamino-1,3,5-triazines, processes for their preparation and their use as herbicides and plant growth regulators” (priority 2001, published 2003)

Legend:
[1] = test system: Cyperus spp., Echinochloa spp., Digitaria spp., Sagitaria spp. and Scirpus spp.; experiment: Action on harmful plants in rice (paddy rice conditions, visual scoring); type: in vivo, typical rice weeds (gramineous and broad-leaved); conditions: applied into the dammed water, visual scoring about three weeks after application
Text: Transplanted and sown rice and also typical rice weeds (gramineous and broad-leaved) are cultivated in closed plastic pots in a greenhouse to the three-leaf stage (Echinochloa crus-galli 1.5-leaf) under paddy rice conditions (dammed height of water: 2-3 cm). This is followed by treatment with the compounds according to the invention. […] After this treatment, the test plants are set up in a greenhouse under optimum growth conditions and are maintained in this way throughout the test period.

[2] = test system: Chenopodium spp., Papaver spp., Polygonum spp., Veronica spp. or Viola spp.; experiment: Post-emergence effect on weeds (greenhouse pot test, visual scoring); type: in vivo, monocotyledonous and dicotyledonous weeds; conditions: treated at three-leaf stage; visual scoring after about 3 to 4 weeks; application rate of 0.5 kg and less of active substance per hectare

Row | Structure (SMILES) | herbicidal activity against harmful plants which are typical for rice crops [1] | herbicidal activity post-emergence against harmful plants [2]
1 | CC#Cc1c(F)cc(C(C)Nc2nc(C)nc(N)n2)cc1F (stereo not shown) [Product P2.428] | very good herbicidal activity | very good herbicidal activity
2 | CCc1nc(N)nc(NC(C)c2ccc(F)c(C#CC(C)O)c2)n1 (stereo not shown) [Product P7.840] | very good herbicidal activity | very good herbicidal activity
3 | CC#Cc1c(F)cc(C(C)Nc2nc(N)nc(C(C)(C)F)n2)cc1F (stereo not shown) [Product P17.428] | very good herbicidal activity | very good herbicidal activity
4 | C#Cc1cccc(C(C)Nc2nc(N)nc(C(C)C)n2)c1 (stereo not shown) [Product P12.1579] | very good herbicidal activity | very good herbicidal activity
5 | C#Cc1c(C)cc(C(C)Nc2nc(N)nc(C(C)(C)F)n2)cc1C (stereo not shown) [Product P17.348] | very good herbicidal activity | very good herbicidal activity
6 | C#Cc1cccc(C(C)Nc2nc(N)nc(C(C)(C)F)n2)c1 (stereo not shown) [Product P17.1579] | very good herbicidal activity | very good herbicidal activity
7 | CC(Nc1nc(N)nc(C(C)(C)F)n1)c1ccc(C(F)=C(F)F)cc1 (stereo not shown) [Product P17.1568] | very good herbicidal activity | very good herbicidal activity
8 | CC(C)(F)c1nc(N)nc(NC(c2ccc(C3CC3)cc2)C2CC2)n1 (stereo not shown) [Product P19.1604] | very good herbicidal activity | very good herbicidal activity
9 | Cc1nc(N)nc(NCc2ccc(C(F)=C(F)F)cc2)n1 [Product P1.1568] | very good herbicidal activity | very good herbicidal activity
10 | CCCCC#Cc1cccc(C(C)Nc2nc(N)nc(C(C)(C)F)n2)c1 (stereo not shown) [Product P17.1594] | very good herbicidal activity | very good herbicidal activity
11 | C#Cc1c(F)cc(C(Nc2nc(N)nc(C(C)C)n2)C2CC2)cc1F (stereo not shown) [Product P14.352] | very good herbicidal activity | very good herbicidal activity
12 | CC(F)c1nc(N)nc(NC(C)c2cccc(C3CC3)c2)n1 (stereo not shown) [Product P22.1603] | very good herbicidal activity | very good herbicidal activity
13 | CC(C)c1nc(N)nc(NC(c2ccc(C(F)=C(F)F)cc2)C2CC2)n1 (stereo not shown) [Product P14.1568] | very good herbicidal activity | very good herbicidal activity
14 | CC(F)C#Cc1cccc(C(C)Nc2nc(N)nc(C(C)F)n2)c1 (stereo not shown) [Product P22.1597] | very good herbicidal activity | very good herbicidal activity
15 | CC#Cc1cccc(CNc2nc(N)nc(C(C)F)n2)c1 (stereo not shown) [Product P21.1582] | very good herbicidal activity | very good herbicidal activity
16 | CC#Cc1cc(CNc2nc(N)nc(C(C)(C)F)n2)ccc1F [Product P16.384] | very good herbicidal activity | very good herbicidal activity
17 | CC(C)(F)c1nc(N)nc(NCc2cccc(C3CC3)c2)n1 [Product P16.1603] | very good herbicidal activity | very good herbicidal activity
18 | C#Cc1cccc(CNc2nc(N)nc(C(C)(C)F)n2)c1 [Product P16.1579] | very good herbicidal activity | very good herbicidal activity
19 | C#Cc1ccc(C(C)Nc2nc(N)nc(C(C)C)n2)cc1C (stereo not shown) [Product P12.335] | very good herbicidal activity | very good herbicidal activity
20 | CC#Cc1cccc(CNc2nc(N)nc(C(F)CC)n2)c1 (stereo not shown) [Product P26.1582] | very good herbicidal activity | very good herbicidal activity
21 | CC#Cc1c(F)cc(C(Nc2nc(C)nc(N)n2)C2CC2)cc1F (stereo not shown) [Product P4.428] | very good herbicidal activity | very good herbicidal activity

Row | Structure (SMILES) | herbicidal activity against harmful plants which are typical for rice crops [1] | herbicidal activity post-emergence against harmful plants [2]
22 | C#Cc1ccc(C(C)Nc2nc(N)nc(C(C)F)n2)cc1F (stereo not shown) [Product P22.1620] | very good herbicidal activity | very good herbicidal activity
23 | Cc1nc(N)nc(NC(C)c2cc(F)c(C3CC3)c(F)c2)n1 (stereo not shown) [Product P2.960] | very good herbicidal activity | very good herbicidal activity
24 | Cc1nc(N)nc(NC(C)c2ccc(C(F)=C(F)F)cc2)n1 (stereo not shown) [Product P2.1568] | very good herbicidal activity | very good herbicidal activity
25 | CC(O)C#Cc1cccc(C(C)Nc2nc(N)nc(C(C)F)n2)c1 (stereo not shown) [Product P22.1600] | very good herbicidal activity | very good herbicidal activity
26 | CCCCC#Cc1cc(C(C)Nc2nc(N)nc(C(C)F)n2)ccc1F (stereo not shown) [Product P22.688] | very good herbicidal activity | very good herbicidal activity
27 | CC#Cc1ccc(C(C)Nc2nc(C)nc(N)n2)cc1 (stereo not shown) [Product P2.1583] | very good herbicidal activity | very good herbicidal activity
28 | CC#Cc1cc(C(C)Nc2nc(C)nc(N)n2)ccc1F (stereo not shown) [Product P2.384] | very good herbicidal activity | very good herbicidal activity
29 | CCC(F)c1nc(N)nc(NC(C)c2cccc(C3CC3)c2)n1 (stereo not shown) [Product P27.1603] | very good herbicidal activity | very good herbicidal activity
30 | CCc1nc(N)nc(NC(C)c2ccc(F)c(C(F)=C(F)F)c2)n1 (stereo not shown) [Product P7.5] | very good herbicidal activity | very good herbicidal activity
31 | Cc1nc(N)nc(NC(c2cccc(C(F)=C(F)F)c2)C2CC2)n1 (stereo not shown) [Product P4.1567] | very good herbicidal activity | very good herbicidal activity
32 | CC#Cc1ccc(C(Nc2nc(C)nc(N)n2)C2CC2)cc1 (stereo not shown) [Product P4.1583] | very good herbicidal activity | very good herbicidal activity
33 | CC(O)C#Cc1cc(C(C)Nc2nc(N)nc(C(C)F)n2)ccc1F (stereo not shown) [Product P22.840] | very good herbicidal activity | very good herbicidal activity
34 | CC#Cc1c(F)cc(C(C)Nc2nc(N)nc(C(F)CC)n2)cc1F (stereo not shown) [Product P27.428] | very good herbicidal activity | very good herbicidal activity
35 | C#Cc1cc(CNc2nc(N)nc(CC)n2)ccc1F [Product P6.309] | very good herbicidal activity | very good herbicidal activity
36 | C#Cc1ccc(C(C)Nc2nc(N)nc(C(F)CC)n2)cc1 (stereo not shown) [Product P27.1580] | very good herbicidal activity | very good herbicidal activity
37 | C#Cc1c(F)cc(C(C)Nc2nc(N)nc(C(F)CC)n2)cc1F (stereo not shown) [Product P27.352] | very good herbicidal activity | very good herbicidal activity
38 | CCCCC#Cc1ccc(C(C)Nc2nc(N)nc(C(C)(C)F)n2)cc1 (stereo not shown) [Product P17.1595] | very good herbicidal activity | very good herbicidal activity
39 | CC(F)c1nc(N)nc(NCc2cc(F)c(C(F)=C(F)F)c(F)c2)n1 (stereo not shown) [Product P21.49] | very good herbicidal activity | very good herbicidal activity
40 | CC#Cc1cccc(C(Nc2nc(N)nc(C(C)(C)F)n2)C2CC2)c1 (stereo not shown) [Product P19.1582] | very good herbicidal activity | very good herbicidal activity
41 | C#Cc1ccc(C(C)Nc2nc(N)nc(CC)n2)cc1 (stereo not shown) [Product P7.1580] | very good herbicidal activity | very good herbicidal activity
